Reference: ChEMBL document CHEMBL4373705, “Design and synthesis of sulfonamidophenylethylamides as novel cardiac myosin activator” (2019)

Tests used:
Rattus norvegicus [1] = species on record: Rattus norvegicus; assay: Activation of myosin ATPase activity in Sprague-Dawley rat ventricular myocytes assessed as increase in ventricular cell shortening by measuring change in ventricular cell contractility at 5 uM by electrophysiology relative to control
Oryctolagus cuniculus = species on record: Oryctolagus cuniculus; assay: Activation of rabbit skeletal muscle actin thin filament complex-stimulated myosin S1 ATPase activity assessed as inorganic phosphate liberated at 100 uM incubated for 10 mins in presence of ATP by spectrophotometry relative to control
Rattus norvegicus [2] = assay: Positive […] activity in Sprague-Dawley rat assessed as increase in fractional shortening at 16 ug/kg/min, iv for 3 mins by echocardiography relative to control; type: functional
Bos taurus = species on record: Bos taurus; assay: Activation of bovine cardiac actin thin filament complex-stimulated myosin S1 ATPase activity assessed as inorganic phosphate liberated at 10 uM incubated for 10 mins in presence of ATP by spectrophotometry relative to control
Rattus norvegicus [3] = assay: Positive […] activity in Sprague-Dawley rat assessed as increase in ejection fraction at 16 ug/kg/min, iv for 3 mins by echocardiography relative to control; type: functional
Gallus gallus = species on record: Gallus gallus; assay: Activation of chicken gizzard muscle actin and tropomyosin-stimulated myosin S1 ATPase activity assessed as inorganic phosphate liberated at 100 uM incubated for 10 mins in presence of ATP by spectrophotometry relative to control
Rattus norvegicus [4] = species on record: Rattus norvegicus; assay: Activation of myosin ATPase activity in Sprague-Dawley rat ventricular myocytes assessed as increase in ventricular cell shortening by measuring change in ventricular cell contractility at 1 uM by electrophysiology relative to control

| Activity (Bos taurus) [%] | Compound | Activity (Rattus norvegicus [2]) [%] | Activity (Rattus norvegicus [3]) [%] | further results |
| --- | --- | --- | --- | --- |
| 50.3 | CN(C)S(=O)(=O)c1ccc(CCCC(=O)NCCCc2ccccc2)cc1 | 17.55 | 11.65 | Activity (Rattus norvegicus [1]): 20.5%; Activity (Oryctolagus cuniculus): -1.9%; Activity (Gallus gallus): 4.1% |
| 55 | CN(CCCc1ccccc1)C(=O)CCCc1ccc(S(=O)(=O)N(C)C)cc1 | 24.69 | 14.08 | Activity (Rattus norvegicus [1]): 46.5%; Activity (Oryctolagus cuniculus): 2.3%; Activity (Gallus gallus): -3.4% |
| 57.4 | COc1ccccc1CCNC(=O)CCCCc1ccccc1 | 13.06 | 9.18 |  |
| 46.5 | CNS(=O)(=O)c1ccc(CCN(C)C(=O)CCCCc2ccccc2)cc1 | 13.51 | 9.22 |  |
| 59 | CN(C)S(=O)(=O)c1ccc(CCNC(=O)CCCCc2ccccc2)cc1 | 14.85 | 9.75 | Activity (Rattus norvegicus [1]): 18.6%; Activity (Oryctolagus cuniculus): -2.8%; Activity (Gallus gallus): 3% |
|  | Cc1ccc2c(c1)C(=O)[C@]1(O)CCN(c3ccccc3)C1=N2 |  |  | Activity (Oryctolagus cuniculus): -50.7%; Activity (Gallus gallus): -35.7% |
| 43.3 | O=C(CCCCc1ccccc1)NCCc1ccccc1F |  |  |  |
| 29.5 | CN(C)S(=O)(=O)c1ccc(CCCC(=O)N2CCC(c3ccccc3)CC2)cc1 |  |  |  |
| 14 | CN(C)S(=O)(=O)c1ccc(CCCC(=O)N2CCN(c3ccccc3)CC2)cc1 |  |  |  |
| 91.6 | CN(C)S(=O)(=O)c1ccc(CCNC(=O)NCCCc2ccccc2)cc1 |  |  | Activity (Rattus norvegicus [1]): 47.9% |
| 51.1 | O=C(NCCCc1ccccc1)NCCc1ccccc1 |  |  |  |
| 44.4 | NS(=O)(=O)c1ccc(CNC(=O)CCCCc2ccccc2)cc1 |  |  |  |
| 62 | O=C(CCCc1ccccc1)NCCCc1ccccc1 | 13.85 | 9.08 |  |
| 33.1 | O=C(CCCCc1ccccc1)NCc1ccccc1 |  |  |  |
| 71.6 | COc1ccc(CCNC(=O)CCCCc2ccccc2)cc1OC | 11.83 | 8.19 |  |
| 78.7 | NS(=O)(=O)c1ccc(CCNC(=O)CCCCc2ccccc2)cc1 | 4.48 | 2.7 |  |

| Activity (Bos taurus) [%] | Compound | Activity (Rattus norvegicus [2]) [%] | Activity (Rattus norvegicus [3]) [%] | further results |
| --- | --- | --- | --- | --- |
| 17.5 | CCN(Cc1ccc(S(=O)(=O)N(C)C)cc1)C(=O)CCCCc1ccccc1 |  |  |  |
| 14.9 | CN(CCc1ccc(S(=O)(=O)N2CCOCC2)cc1)C(=O)CCCCc1ccccc1 |  |  |  |
| 58 | COC(=O)N1CCN(Cc2cccc(NC(=O)Nc3ccc(C)nc3)c2F)CC1 |  |  | Activity (Oryctolagus cuniculus): 2.8%; Activity (Gallus gallus): -5.5%; Activity (Rattus norvegicus [4]): 33.8% |
| 31.1 | O=C(CCCCc1ccccc1)NC1Cc2ccccc2C1 |  |  |  |
| 53.3 | O=C(NCCCc1ccccc1)NCc1ccccc1 |  |  |  |
| 55.9 | CNS(=O)(=O)c1ccc(CN(C)C(=O)CCCCc2ccccc2)cc1 | 15.75 | 9.95 |  |
| 20 | CN(C)S(=O)(=O)c1ccc(CNC(=O)CCCCc2ccccc2)cc1 |  |  |  |
| 52.3 | CN(CCc1ccc(S(=O)(=O)N(C)C)cc1)C(=O)NCCCc1ccccc1 |  |  | Activity (Rattus norvegicus [1]): 45.5% |
| 17.9 | CCN(CC)S(=O)(=O)c1ccc(CCN(C)C(=O)CCCCc2ccccc2)cc1 |  |  |  |
| 13.9 | CCN(CCc1ccc(S(=O)(=O)N(C)C)cc1)C(=O)CCCCc1ccccc1 |  |  |  |
| 48.5 | CN(CCc1ccc(S(=O)(=O)N(C)C)cc1)C(=O)CCCCc1ccccc1 | 26.21 | 15.28 | Activity (Rattus norvegicus [1]): 88.2%; Activity (Oryctolagus cuniculus): -4.8%; Activity (Gallus gallus): 5.2% |
| 24.1 | CN(Cc1ccc(S(=O)(=O)N(C)C)cc1)C(=O)CCCCc1ccccc1 |  |  |  |
| 47.6 | CN(CCCc1ccccc1)C(=O)NCCc1ccc(S(=O)(=O)N(C)C)cc1 |  |  | Activity (Rattus norvegicus [1]): 63.5% |
| 39.1 | O=C(CCCCc1ccccc1)NCCc1ccccc1 | 22.8 | 13.97 | Activity (Rattus norvegicus [1]): 21.3%; Activity (Oryctolagus cuniculus): -2.9%; Activity (Gallus gallus): -2.8% |
| 62.9 | Cc1ccc(CCNC(=O)CCCCc2ccccc2)cc1 |  |  |  |
